Assay results from patent US10472346B2, “Potent gamma-secretase modulators” (The General Hospital Coporation, priority 2014, dated 2019).

Tests used:
[1] = test system: APP-CTF (C-terminal fragment); test: Accumulation of APP-CTFs in brain extracts (immunoblot, anti-APP carboxyl-terminal antibody); type: in vivo; conditions: administered doses of 5, 25 or 50 mg/kg
Description: FIG. 7: Protein blots of indicated proteins from subjects administered vehicle and Compound 1 at doses of 5, 25 and 50 mg/kg.
Brain extracts which were prepared using 1.0% SDS run on SDS-PAGE, transferred to PVDF membranes and immunoblots were performed using an anti-APP carboxyl-terminal antibody.

[2] = test system: total Aβ peptides; test: Levels of total Aβ peptides, SHSYSY-APP cell-based assay (sandwich ELISA); conditions: concentration response, percent solvent control
Description: FIG. 8: Representative concentration response curves of Compound 1 using our primary and orthogonal medium throughput SHSYSY-APP cell-based screening assays (10). Compounds are first screened two times in triplicate in our UCSD sandwich Aβ42 ELISA on sequential days and the average of the two assays must be within 3-fold of each other before being entered into the CDD relational database. The UCSD sandwich ELISA assay can easily handle 20 compounds per week. Compounds with Aβ42 IC50 values <100 nM continue through the testing funnel. The Z′ score and the % CV for the UCSD Aβ42 sandwich ELISA assay are 0.8 and 4, respectively. For the Meso Scale triplex assay the Z′ scores are 0.7, 0.9 and 0.6 Aβ42, Aβ40 and Aβ38, respectively and the % CV's are 7, 2 and 1 for Aβ42, Aβ40 and Aβ38, respectively. Aβ total peptides are measured using a sandwich ELISA.
The figure depicts percent solvent control (Aβ40/Aβ42/AβTotal) (left axis) and percent solvent control (Aβ38) again log of, concentration of Compound 1.

COc1nc(-c2cc(C)c(N[C@@H](C)c3ccc(F)cc3)nn2)ccc1-n1cnc(C)c1 [Compound 1, (S)—N-(1-(4-fluorophenyl)ethyl)-6-(6-methoxy-5-(4-methyl-1H-imidazol-1-yl)pyridin-2-yl)-4-methylpyridazin-3-amine]
accumulation of APP-CTF (C-terminal fragment) [1]: does not cause accumulation of APP-CTF | levels of total Aβ peptides [2]: does not decrease levels of total Aβ peptides
